Structures are written as SMILES.

The target in the experiment is human JAK1 (a.a. 837-1142). Nature of the experiment: In vitro JAK kinase assay (HTRF, phosphorylation of a biotinylated peptide), JAK1. To be noted: measured at 1 mM ATP; JAK2 IC50 / JAK1 IC50. The class given is biochemical. Put shortly:
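Phosphorylation of a biotinylated peptide by purified His-tagged JAK catalytic domains (insect-cell baculovirus expression) ran 1 hr at room temperature. After stopping with EDTA, Eu-Py20 and SA-APC were bound for 40 minutes and HTRF measured.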
Consider `Cc1csc(NC(=O)N2CCC(N3CC(CC#N)(n4cc(-c5ncnc6[nH]ccc56)cn4)C3)CC2)n1` [Example 191, 4-{3-(cyanomethyl)-3-[4-(7H-pyrrolo[2,3-d]pyrimidin-4-yl)-1H-pyrazol-1-yl]azetidin-1-yl}-N-(4-methyl-1,3-thiazol-2-yl)piperidine-1-carboxamide], for which the “IC50 Ratio JAK2/JAK1” value is 1.4.

Turning to `Cc1nc(NC(=O)N2CCC(N3CC(CC#N)(n4cc(-c5ncnc6[nH]ccc56)cn4)C3)CC2)sc1C` [Example 192, 4-{3-(cyanomethyl)-3-[4-(7H-pyrrolo[2,3-d]pyrimidin-4-yl)-1H-pyrazol-1-yl]azetidin-1-yl}-N-(4,5-dimethyl-1,3-thiazol-2-yl)piperidine-1-carboxamide], the “IC50 Ratio JAK2/JAK1” value was 3.0. As for `N#CCC1(n2cc(-c3ncnc4[nH]ccc34)cn2)CN(C2CCN(C(=O)Nc3nc4ccccc4s3)CC2)C1` [Example 193, N-1,3-benzothiazol-2-yl-4-{3-(cyanomethyl)-3-[4-(7H-pyrrolo[2,3-d]pyrimidin-4-yl)-1H-pyrazol-1-yl]azetidin-1-yl}piperidine-1-carboxamide], the “IC50 Ratio JAK2/JAK1” value stood at 0.5. Under `Cn1c(NC(=O)N2CCC(N3CC(CC#N)(n4cc(-c5ncnc6[nH]ccc56)cn4)C3)CC2)nc2ccccc21` [Example 194, 4-{3-(cyanomethyl)-3-[4-(7H-pyrrolo[2,3-d]pyrimidin-4-yl)-1H-pyrazol-1-yl]azetidin-1-yl}-N-(1-methyl-1H-benzimidazol-2-yl)piperidine-1-carboxamide] stands 2.2; under `N#CCC1(n2cc(-c3ncnc4[nH]ccc34)cn2)CN(C2CCN(C(=O)Nc3nc(-c4ccc(Cl)cc4)cs3)CC2)C1` [Example 195, N-[4-(4-chlorophenyl)-1,3-thiazol-2-yl]-4-{3-(cyanomethyl)-3-[4-(7H-pyrrolo[2,3-d]pyrimidin-4-yl)-1H-pyrazol-1-yl]azetidin-1-yl}piperidine-1-carboxamide], 3.2. For `CCn1nccc1NC(=O)N1CCC(N2CC(CC#N)(n3cc(-c4ncnc5[nH]ccc45)cn3)C2)CC1` [Example 196, 4-{3-(cyanomethyl)-3-[4-(7H-pyrrolo[2,3-d]pyrimidin-4-yl)-1H-pyrazol-1-yl]azetidin-1-yl}-N-(1-ethyl-1H-pyrazol-5-yl)piperidine-1-carboxamide] the value was 9.9. For `Cc1cc(NC(=O)N2CCC(N3CC(CC#N)(n4cc(-c5ncnc6[nH]ccc56)cn4)C3)CC2)n(C)n1` [Example 197, 4-{3-(cyanomethyl)-3-[4-(7H-pyrrolo[2,3-d]pyrimidin-4-yl)-1H-pyrazol-1-yl]azetidin-1-yl}-N-(1,3-dimethyl-1H-pyrazol-5-yl)piperidine-1-carboxamide] the value was 3.2. For `Cc1ncccc1NC(=O)N1CCC(N2CC(CC#N)(n3cc(-c4ncnc5[nH]ccc45)cn3)C2)CC1` [Example 198, 4-{3-(cyanomethyl)-3-[4-(7H-pyrrolo[2,3-d]pyrimidin-4-yl)-1H-pyrazol-1-yl]azetidin-1-yl}-N-(2-methylpyridin-3-yl)piperidine-1-carboxamide], the “IC50 Ratio JAK2/JAK1” value is on record as 4.4. Under `Cc1nc(F)ccc1NC(=O)N1CCC(N2CC(CC#N)(n3cc(-c4ncnc5[nH]ccc45)cn3)C2)CC1` [Example 199, 4-{3-(cyanomethyl)-3-[4-(7H-pyrrolo[2,3-d]pyrimidin-4-yl)-1H-pyrazol-1-yl]azetidin-1-yl}-N-(6-fluoro-2-methylpyridin-3-yl)piperidine-1-carboxamide] stands 10.0; under `Cc1ccc(NC(=O)N2CCC(N3CC(CC#N)(n4cc(-c5ncnc6[nH]ccc56)cn4)C3)CC2)c(F)n1` [Example 200, 4-{3-(cyanomethyl)-3-[4-(7H-pyrrolo[2,3-d]pyrimidin-4-yl)-1H-pyrazol-1-yl]azetidin-1-yl}-N-(2-fluoro-6-methylpyridin-3-yl)piperidine-1-carboxamide], 6.7. Take `N#CCC1(n2cc(-c3ncnc4[nH]ccc34)cn2)CN(C2CCN(C(=O)Nc3ncccc3C(F)(F)F)CC2)C1` [Example 201, 4-{3-(cyanomethyl)-3-[4-(7H-pyrrolo[2,3-d]pyrimidin-4-yl)-1H-pyrazol-1-yl]azetidin-1-yl}-N-[3-(trifluoromethyl)pyridin-2-yl]piperidine-1-carboxamide]: the “IC50 Ratio JAK2/JAK1” value worked out at 3.6. For `N#CCC1(n2cc(-c3ncnc4[nH]ccc34)cn2)CN(C2CCN(C(=O)Nc3ncccc3F)CC2)C1` [Example 202, 4-{3-(cyanomethyl)-3-[4-(7H-pyrrolo[2,3-d]pyrimidin-4-yl)-1H-pyrazol-1-yl]azetidin-1-yl}-N-(3-fluoropyridin-2-yl)piperidine-1-carboxamide] the value was 6.4; for `N#CCC1(n2cc(-c3ncnc4[nH]ccc34)cn2)CN(C2CCN(C(=O)Nc3ncc(F)cc3F)CC2)C1` [Example 203, 4-{3-(cyanomethyl)-3-[4-(7H-pyrrolo[2,3-d]pyrimidin-4-yl)-1H-pyrazol-1-yl]azetidin-1-yl}-N-(3,5-difluoropyridin-2-yl)piperidine-1-carboxamide], 8.6; for `COc1ncccc1NC(=O)N1CCC(N2CC(CC#N)(n3cc(-c4ncnc5[nH]ccc45)cn3)C2)CC1` [Example 204, 4-{3-(cyanomethyl)-3-[4-(7H-pyrrolo[2,3-d]pyrimidin-4-yl)-1H-pyrazol-1-yl]azetidin-1-yl}-N-(2-methoxypyridin-3-yl)piperidine-1-carboxamide], 4.0. Under `Cc1nc(C(F)(F)F)ccc1NC(=O)N1CCC(N2CC(CC#N)(n3cc(-c4ncnc5[nH]ccc45)cn3)C2)CC1` [Example 205, 4-{3-(cyanomethyl)-3-[4-(7H-pyrrolo[2,3-d]pyrimidin-4-yl)-1H-pyrazol-1-yl]azetidin-1-yl}-N-[2-methyl-6-(trifluoromethyl)pyridin-3-yl]piperidine-1-carboxamide] stands 4.4; under `COC(=O)c1ccccc1NC(=O)N1CCC(N2CC(CC#N)(n3cc(-c4ncnc5[nH]ccc45)cn3)C2)CC1` [Example 206, methyl 2-{[(4-{3-(cyanomethyl)-3-[4-(7H-pyrrolo[2,3-d]pyrimidin-4-yl)-1H-pyrazol-1-yl]azetidin-1-yl}piperidin-1-yl)carbonyl]amino}benzoate], 1.6. With `COC(=O)c1cc(F)ccc1NC(=O)N1CCC(N2CC(CC#N)(n3cc(-c4ncnc5[nH]ccc45)cn3)C2)CC1` [Example 207, methyl 2-{[(4-{3-(cyanomethyl)-3-[4-(7H-pyrrolo[2,3-d]pyrimidin-4-yl)-1H-pyrazol-1-yl]azetidin-1-yl}piperidin-1-yl)carbonyl]amino}-5-fluorobenzoate], the “IC50 Ratio JAK2/JAK1” value is 2.5. Under `COC(=O)c1ccc(NC(=O)N2CCC(N3CC(CC#N)(n4cc(-c5ncnc6[nH]ccc56)cn4)C3)CC2)c(F)c1` [Example 208, methyl 4-{[(4-{3-(cyanomethyl)-3-[4-(7H-pyrrolo[2,3-d]pyrimidin-4-yl)-1H-pyrazol-1-yl]azetidin-1-yl}piperidin-1-yl)carbonyl]amino}-3-fluorobenzoate] stands 4.8; under `CN(C)c1ccc(CN2CCC(N3CC(CC#N)(n4cc(-c5ncnc6[nH]ccc56)cn4)C3)CC2)c(F)c1C#N` [Example 209, 3-[(4-{3-(Cyanomethyl)-3-[4-(7H-pyrrolo[2,3-d]pyrimidin-4-yl)-1H-pyrazol-1-yl]azetidin-1-yl}piperidin-1-yl)methyl]-6-(dimethylamino)-2-fluorobenzonitrile], 19.0; under `N#CCC1(n2cc(-c3ncnc4[nH]ccc34)cn2)CN(C2CCN(Cc3cc(Cl)cc(Cl)c3)CC2)C1` [Example 210, {1-[1-(3,5-dichlorobenzyl)piperidin-4-yl]-3-[4-(7H-pyrrolo[2,3-d]pyrimidin-4-yl)-1H-pyrazol-1-yl]azetidin-3-yl}acetonitrile], 4.3. Turning to `N#CCC1(n2cc(-c3ncnc4[nH]ccc34)cn2)CN(C2CCN(Cc3cc(C(F)(F)F)ccc3Cl)CC2)C1` [Example 211, {1-{1-[2-chloro-5-(trifluoromethyl)benzyl]piperidin-4-yl}-3-[4-(7H-pyrrolo[2,3-d]pyrimidin-4-yl)-1H-pyrazol-1-yl]azetidin-3-yl}acetonitrile], the “IC50 Ratio JAK2/JAK1” value stood at 5.0. Under `N#CCC1(n2cc(-c3ncnc4[nH]ccc34)cn2)CN(C2CCN(Cc3cccc(C(F)(F)F)c3F)CC2)C1` [Example 212, {1-{1-[2-fluoro-3-(trifluoromethyl)benzyl]piperidin-4-yl}-3-[4-(7H-pyrrolo[2,3-d]pyrimidin-4-yl)-1H-pyrazol-1-yl]azetidin-3-yl}acetonitrile] stands 7.8; under `N#CCC1(n2cc(-c3ncnc4[nH]ccc34)cn2)CN(C2CCN(Cc3c(F)cccc3C(F)(F)F)CC2)C1` [Example 213, {1-{1-[2-fluoro-6-(trifluoromethyl)benzyl]piperidin-4-yl}-3-[4-(7H-pyrrolo[2,3-d]pyrimidin-4-yl)-1H-pyrazol-1-yl]azetidin-3-yl}acetonitrile], 9.7; under `N#CCC1(n2cc(-c3ncnc4[nH]ccc34)cn2)CN(C2CCN(Cc3cc4ccccc4nc3Cl)CC2)C1` [Example 214, {1-{1-[(2-chloroquinolin-3-yl)methyl]piperidin-4-yl}-3-[4-(7H-pyrrolo[2,3-d]pyrimidin-4-yl)-1H-pyrazol-1-yl]azetidin-3-yl}acetonitrile], 2.5. Under `N#CCC1(n2cc(-c3ncnc4[nH]ccc34)cn2)CN(C2CCN(Cc3cc(F)cc(F)c3)CC2)C1` [Example 215, {1-[1-(3,5-difluorobenzyl)piperidin-4-yl]-3-[4-(7H-pyrrolo[2,3-d]pyrimidin-4-yl)-1H-pyrazol-1-yl]azetidin-3-yl}acetonitrile] stands 5.7; under `COc1cccc(F)c1CN1CCC(N2CC(CC#N)(n3cc(-c4ncnc5[nH]ccc45)cn3)C2)CC1` [Example 218, {1-[1-(2-fluoro-6-methoxybenzyl)piperidin-4-yl]-3-[4-(7H-pyrrolo[2,3-d]pyrimidin-4-yl)-1H-pyrazol-1-yl]azetidin-3-yl}acetonitrile], 2.6.

For the origin of these results see patent publication US10695337B2, “Piperidin-4-yl azetidine derivatives as JAK1 inhibitors” (Incyte Corporation, priority 2010, dated 2020).
